Source: the supplement of paper PMC10307832

Tests used:
Test in all cases: relative viability (nuclei count vs DMSO), 5 days (fraction); higher = more cells survive
[1] = compound: CCC1=CN=CN=C1N2CCN(CC2)CC3=NC4=C(N3)C=C(C=C4)C(F)(F)F + Cc1cc(Nc2cc(N3CCN(C)CC3)nc(Sc3ccc(NC(=O)C4CC4)cc3)n2)n[nH]1 [Tozasertib] (partner 0.1 µM)
Procedure, shortened: (§1)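 Lung cancer cell lines, seeded in 1536-well plates, were treated the following day by pin tool with a single drug or with five library-drug doses (not always all listed) in √10 steps on top of a fixed anchor-drug dose. Cells were fixed and nuclei stained in one step after 5 days, and nuclei were counted. Relative viability is the nuclei count for treated wells divided by that for vehicle wells, reported as medians of duplicate plates.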

Mirin + Bortezomib = compound: N=C1NC(=O)/C(=C/c2ccc(O)cc2)S1 [Mirin] + CC(C)C[C@H](NC(=O)[C@H](Cc1ccccc1)NC(=O)c1cnccn1)B(O)O [Bortezomib] (partner 0.002 µM)
Procedure, shortened: as §1

Mirin + Pictilisib = compound: N=C1NC(=O)/C(=C/c2ccc(O)cc2)S1 [Mirin] + CS(=O)(=O)N1CCN(Cc2cc3nc(-c4cccc5[nH]ncc45)nc(N4CCOCC4)c3s2)CC1 [Pictilisib] (partner 1 µM)
Procedure, shortened: as §1

Mirin + Olaparib = compound: N=C1NC(=O)/C(=C/c2ccc(O)cc2)S1 [Mirin] + O=C(c1cc(Cc2n[nH]c(=O)c3ccccc23)ccc1F)N1CCN(C(=O)C2CC2)CC1 [Olaparib] (partner 8 µM)
Procedure, shortened: as §1

| Cell Line | relative viability ([1]; first compound 0.04 µM) | relative viability ([1]; first compound 0.1265 µM) | relative viability ([1]; first compound 0.4 µM) | relative viability ([1]; first compound 4 µM) | relative viability (Mirin + Bortezomib; first compound 0.25 µM) | relative viability (Mirin + Bortezomib; first compound 0.7906 µM) | relative viability (Mirin + Bortezomib; first compound 2.5 µM) | relative viability (Mirin + Bortezomib; first compound 7.906 µM) | relative viability (Mirin + Bortezomib; first compound 25 µM) | relative viability (Mirin + Pictilisib; first compound 0.25 µM) | relative viability (Mirin + Pictilisib; first compound 0.7906 µM) | relative viability (Mirin + Pictilisib; first compound 2.5 µM) | relative viability (Mirin + Pictilisib; first compound 7.906 µM) | relative viability (Mirin + Pictilisib; first compound 25 µM) | relative viability (Mirin + Olaparib; first compound 0.25 µM) | relative viability (Mirin + Olaparib; first compound 2.5 µM) | relative viability (Mirin + Olaparib; first compound 7.906 µM) | relative viability (Mirin + Olaparib; first compound 25 µM) | relative viability ([1]; first compound 1.265 µM) | relative viability (Mirin + Olaparib; first compound 0.7906 µM) |
| --- | --- | --- | --- | --- | --- | --- | --- | --- | --- | --- | --- | --- | --- | --- | --- | --- | --- | --- | --- | --- |
| NCI-H2405 | 0.779 | 0.759 | 0.741 | 0.685 | 1.02 | 0.765 | 0.967 | 0.972 | 1.01 | 0.465 | 0.51 | 0.401 | 0.307 | 0.317 | 0.916 | 0.898 | 0.97 | 0.838 | – | – |
| LXF-289 | 0.168 | 0.175 | 0.206 | 0.192 | 0.99 | 1.08 | 1.01 | 1.02 | 1.11 | 0.744 | 0.747 | 0.803 | 0.844 | 0.701 | 1.04 | 1 | 1.04 | 0.975 | 0.16 | 1.04 |
| LU99A | 0.268 | 0.281 | 0.282 | 0.297 | 1.07 | 0.93 | 1.17 | 1 | 0.968 | 0.282 | 0.302 | 0.295 | 0.283 | 0.271 | 0.297 | 0.288 | 0.228 | 0.165 | 0.278 | 0.206 |
| PC-3 [JPC-3] | 0.883 | 0.814 | 0.844 | 0.776 | 0.768 | 0.889 | 0.841 | 0.941 | 0.967 | 0.678 | 0.73 | 0.731 | 0.702 | 0.706 | 1.14 | 1.19 | 1.21 | 1.23 | 0.886 | 1.23 |
| NCI-H2085 | 0.815 | 0.71 | 0.794 | 0.633 | 1.13 | 0.972 | 1.18 | 0.975 | 1.02 | 0.417 | 0.398 | 0.484 | 0.462 | 0.468 | 0.773 | 0.773 | 0.949 | 0.808 | 0.698 | 0.752 |
| HCC-78 | 0.572 | 0.549 | 0.446 | 0.376 | 0.449 | 1.03 | 0.524 | 0.397 | 0.424 | 0.203 | 0.2 | 0.205 | 0.207 | 0.215 | 0.786 | 0.718 | 0.852 | 0.732 | 0.434 | 0.628 |
| NCI-H2228 | 0.252 | 0.249 | 0.22 | 0.253 | 0.983 | 1.04 | 1 | 0.919 | 1.2 | 0.397 | 0.396 | 0.37 | 0.356 | 0.346 | 0.552 | 0.819 | 0.666 | 0.723 | 0.335 | 0.676 |
| H3255 | 0.63 | 0.413 | 0.674 | 0.715 | 0.778 | 0.725 | 0.837 | 0.698 | 0.769 | 0.516 | 0.444 | 0.493 | 0.306 | 0.564 | 0.55 | 0.541 | 0.537 | 0.547 | 0.436 | 0.539 |
| HCC-15 | 0.444 | 0.357 | 0.381 | 0.391 | 1.02 | 0.928 | 1.03 | 0.893 | 0.949 | 0.789 | 0.411 | 0.665 | 0.551 | 0.517 | 0.718 | 0.73 | 0.536 | 0.502 | 0.449 | 0.675 |
| NCI-H727 | 0.646 | 0.621 | 0.648 | 0.619 | 1.24 | 1.18 | 0.832 | 0.997 | 0.907 | 0.353 | 0.443 | 0.458 | 0.501 | 0.515 | 0.728 | 0.768 | 0.602 | 0.561 | 0.42 | 0.6 |
| NCI-H2009 | 0.778 | 0.698 | 0.727 | 0.678 | 1 | 0.831 | 1.12 | 0.869 | 1.14 | 0.919 | 0.706 | 0.871 | 0.66 | 0.6 | 0.727 | 0.684 | 0.524 | 0.675 | 0.746 | 0.737 |
| HCC-44 | 0.955 | 0.962 | 0.905 | 1.06 | 0.876 | 0.955 | 0.846 | 0.856 | 1.13 | 0.7 | 0.819 | 0.602 | 0.541 | 0.474 | 0.99 | 0.97 | 0.964 | 1.1 | 0.597 | 1.11 |
| ChaGo-K-1 | 0.206 | 0.256 | 0.233 | 0.224 | 0.984 | – | 0.953 | 0.628 | 0.969 | 0.667 | – | 0.713 | 0.571 | 0.693 | 0.415 | 0.43 | 0.381 | 0.253 | 0.195 | 0.363 |
| COR-L23 | 0.219 | 0.207 | 0.201 | 0.183 | 1.1 | 1.08 | 1.03 | 1.06 | 0.968 | 0.8 | 0.721 | 0.854 | 0.738 | 0.687 | 0.395 | 0.313 | 0.365 | 0.319 | 0.157 | 0.319 |
| EMC-BAC-2 | 0.293 | 0.3 | 0.279 | 0.268 | 1.11 | 1.08 | 1.07 | 1.05 | 1.11 | 0.56 | 0.546 | 0.532 | 0.508 | 0.52 | 0.505 | 0.48 | 0.382 | 0.429 | – | 0.508 |
| LCLC-103H | 0.536 | 0.504 | 0.488 | 0.398 | 1.12 | 1.07 | 0.959 | 1.23 | 1.12 | 0.63 | 0.532 | 0.536 | 0.714 | 0.739 | 0.703 | 0.758 | 0.847 | 0.89 | 0.463 | 0.892 |
